Measured values as given in EP0246888A2, “Dopamine-beta-hydroxylase inhibitors” (SMITHKLINE BECKMAN CORPORATION, priority 1986, dated 1987).

Experiments:
[1] = test system: spontaneously hypertensive rats; test: mean arterial blood pressure in spontaneously hypertensive rats; assay type: in vivo
Experimental: Further, spontaneously hypertensive rats were treated with a suspension or solution of 1-benzyl-1,2,4-triazole-5-thiol at a dose of 100 mg/kg orally, and mean arterial blood pressure was monitored for 260 minutes using indwelling cannulae positioned in the tail arteries. When compared to vehicle-treated controls, the compound-treated animals' blood pressure was approximately 5% below that of controls 20 minutes following treatment. The compound-treated animals' blood pressure continued to fall until it reached its nadir of approximately 20% less than controls at 240 minutes after compound treatment. Similarly, 1-(3ʹ-fluorobenzyl)-1,2,4-triazole-5-thiol produced approximate 20% blood pressure reductions one hour after a 50 mg/kg intraperitoneal dose. The blood pressure of the treated animals remained approximately 20% less than controls when blood pressure monitoring was terminated.

DBH = target: T1, DBH (Homo sapiens, UniProt P09172); settings: reported by Runti et al., Il Farmaco Ed. Sci. 36, 260 (1980); cited from earlier work
T1 sequence (P09172 1-617): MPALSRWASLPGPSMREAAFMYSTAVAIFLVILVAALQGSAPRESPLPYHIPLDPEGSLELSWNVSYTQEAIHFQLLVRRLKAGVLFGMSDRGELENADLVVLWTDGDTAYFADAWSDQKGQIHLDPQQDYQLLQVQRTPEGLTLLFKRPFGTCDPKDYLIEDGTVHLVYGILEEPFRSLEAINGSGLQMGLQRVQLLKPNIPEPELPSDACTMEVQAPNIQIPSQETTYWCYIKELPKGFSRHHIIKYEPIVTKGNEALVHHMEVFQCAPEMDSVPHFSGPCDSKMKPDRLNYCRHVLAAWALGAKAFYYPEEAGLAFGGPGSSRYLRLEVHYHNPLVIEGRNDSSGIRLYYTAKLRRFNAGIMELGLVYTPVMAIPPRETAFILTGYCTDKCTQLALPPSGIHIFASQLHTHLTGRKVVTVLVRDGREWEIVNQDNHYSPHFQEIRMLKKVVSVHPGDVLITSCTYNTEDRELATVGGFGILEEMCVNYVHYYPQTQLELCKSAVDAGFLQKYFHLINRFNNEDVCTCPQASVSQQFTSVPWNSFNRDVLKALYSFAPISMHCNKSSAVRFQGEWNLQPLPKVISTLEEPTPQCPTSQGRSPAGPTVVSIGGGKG

Fc1cccc(Cn2ncnc2S)c1 [1-(3ʹ-Fluorobenzyl)-1,2,4-triazole-5-thiol]
blood pressure reductions ([1]; 50 mg/kg intraperitoneal dose, one hour after dose): approximately 20% | blood pressure less than controls ([1]; 50 mg/kg intraperitoneal dose, when blood pressure monitoring was terminated): approximately 20%

Sc1ncnn1Cc1ccccc1 [1-benzyl-1,2,4-triazole-5-thiol, 1-Benzyl-1,2,4-triazole-5-thiol]
blood pressure below that of controls ([1]; 100 mg/kg orally, 20 minutes following treatment, vs vehicle-treated controls): approximately 5% | blood pressure nadir, less than controls ([1]; 100 mg/kg orally, 240 minutes after compound treatment, vs vehicle-treated controls): approximately 20%

phenylpicolinic acid
inhibitory activity relative to fusaric acid (DBH): twice the inhibitory activity of fusaric acid
